The numbers were not newly measured in paper PMC8198792, “Prediction of Anticancer Peptides with High Efficacy and Low Toxicity by Hybrid Model Based on 3D Structure of Peptides” (International Journal of Molecular Sciences, 2021), which cites them from elsewhere.

Where two headings read alike, the source gives them in different places.

In one data set the test system is cancer cell lines. Also on record: method as in 6 sources, ref CancerPPD [45] and SATPdb ||| ref CancerPPD/SATPdb ||| ref CancerPPD, SATPdb, Swissprot (PDB) ||| ref CancerPPD/SATPdb/Swissprot(PDB) ||| ref CancerPPD / SATPdb ||| ... Particulars: cited from earlier work. An excerpt:
Supplement ijms-22-05630-s001.zip/ACPs(seguence).xlsx, sheet "D1" | column: Activity || Supplement ijms-22-05630-s001.zip/ACPs(seguence).xlsx, sheet "D2" | column: Activity || Supplement ijms-22-05630-s001.zip/ACPs(seguence).xlsx, sheet "D3" | column: Activity || (+ 2 further places)

The next data set deals with erythrocytes. Particulars: cited from earlier work. An excerpt: Supplement ijms-22-05630-s001.zip/Hemloytic Peptides(seguence).xlsx, sheet "HD1" | column: Activity || Supplement ijms-22-05630-s001.zip/Hemloytic Peptides(seguence).xlsx, sheet "HD2" | column: Activity || Supplement ijms-22-05630-s001.zip/Hemloytic Peptides(seguence).xlsx, sheet "HD3" | column: Activity

Setting [1] is: ACPs dataset D3 (sheet "D3"), label 1 = ACP, 0 = non-ACP, ref CancerPPD/SATPdb.
Where [2] appears, read: ACPs dataset D4 (sheet "D4"), label 1 = ACP, 0 = non-ACP, ref CancerPPD / SATPdb.
The mark [3] stands for this setting: ACPs dataset D5, sheet "D5", label 1 = ACP, 0 = non-ACP, ref CancerPPD [45] and SATPdb.
The mark [4] stands for this setting: Hemolytic peptides dataset HD2, label 1 = hemolytic, 0 = non-hemolytic, ref Hemolytik/SATPdb.
Where [5] appears, read: hemolytic peptides dataset HD3, 1 = hemolytic (positive set), 0 = non-hemolytic (negative set), labels taken from databases, ref Hemolytik/SATPdb.
[6] abbreviates: ACPs dataset D3 (supplement sheet "D3"), 1 = ACP, 0 = non-ACP, ref CancerPPD [45] and SATPdb.
The mark [7] stands for this setting: ACPs dataset D1, label 1 = ACP, 0 = non-ACP (non-anticancer AMPs from SATPdb), ref CancerPPD/SATPdb.
[8] abbreviates: ACPs dataset D4 (sheet "D4"), label 1 = ACP (CancerPPD ID), 0 = non-ACP (non-anticancer AMP, SATPdb ID), ref CancerPPD [45] and SATPdb.
[9] abbreviates: natural hemolytic peptide dataset HD1, label collected from databases, ref Hemolytik [49], SATPdb [34].
The mark [10] stands for this setting: ACPs dataset D1, 1 = ACP (positive), 0 = non-ACP (negative), label taken from databases, ref CancerPPD [45] and SATPdb.

Take FVPWFSKFLGRIL [satpdb13384]: the Activity in the data set on cancer cell lines (setting [1]) is reported as 0; in the data set with cancer cell lines (setting [2]), 0; with cancer cell lines (setting [3]), 0; with erythrocytes (setting [4]) it was 1; in the data set on erythrocytes (setting [5]), 1.

Turning to IWRIFRRIFRIF [satpdb11167], the Activity with cancer cell lines (setting [6]) is 0; in the data set with cancer cell lines (setting [2]), 0; in the data set on cancer cell lines (setting [3]) it was 0; in the data set with erythrocytes (setting [4]), 1; in the data set with erythrocytes (setting [5]), 1.

Take “CGESCVFIPCISTLLGCSCKNKVCYRNGVIP [satpdb11124]”: the Activity in the data set with cancer cell lines (setting [7]) is listed as 0; in the data set with cancer cell lines (setting [8]) it was 0; in the data set on erythrocytes (setting [5]), 1. Further, the “Activity (dataset HD1, hemolytic 1 / non-hemolytic 0)” value in the data set with erythrocytes (setting [9]) is on record as 1.

Consider LLIILRRRWRKQAKAKSK [satpdb12920], for which the Activity was 0 in the data set on cancer cell lines (setting [1]), 0 with cancer cell lines (setting [2]), 0 with cancer cell lines (setting [3]) and 1 in the data set with erythrocytes.

As for FSPQMLQDIIEKKTKIL [satpdb13152], the Activity in the data set on cancer cell lines (setting [7]), in the data set on cancer cell lines (setting [2]) and with erythrocytes was 0 in each case. Besides, in the data set on erythrocytes, the “Activity (dataset HD1, hemolytic 1 / non-hemolytic 0)” value was 0.

Take FLAGLIGGLAKMLGK [satpdb10461]: the values for the Activity with cancer cell lines (setting [10]), in the data set on cancer cell lines (setting [8]) and in the data set on erythrocytes were 0, 0 and 1, respectively. In the data set on erythrocytes, the “Activity (dataset HD1, hemolytic 1 / non-hemolytic 0)” value is given as 1.

In the case of ALPLIGRVLSGIL [satpdb11361], the Activity in the data set on cancer cell lines (setting [6]) is given as 0; in the data set with cancer cell lines (setting [2]), 0; with cancer cell lines (setting [3]), 0; with erythrocytes it was 1.

Regarding “QLKVDLWGTRSGIQPEQHSSGKSDVRRWRSRY [satpdb10403]”, the Activity with cancer cell lines (setting [6]), in the data set with cancer cell lines (setting [2]), in the data set with cancer cell lines (setting [3]) and with erythrocytes was 0 in each case.

On to QPTRRPRPGTGPGRRPRPRPRP [satpdb11920], for which the Activity in the data set on cancer cell lines (setting [7]), in the data set with cancer cell lines (setting [8]) and in the data set with erythrocytes was 0 each time. Moreover, in the data set on erythrocytes, the “Activity (dataset HD1, hemolytic 1 / non-hemolytic 0)” value was 0.

For the substance VKLGVyPLKVKLyP [satpdb12769], the Activity in the data set with cancer cell lines (setting [1]) is listed as 0; with cancer cell lines (setting [2]), 0; in the data set with cancer cell lines (setting [3]) it was 0; in the data set with erythrocytes, 1.

For KEKLKLKCKAPKCYNDKLACT [satpdb13157], the Activity with cancer cell lines (setting [7]), in the data set on cancer cell lines (setting [2]) and with erythrocytes was 0 throughout. Further, in the data set on erythrocytes, the “Activity (dataset HD1, hemolytic 1 / non-hemolytic 0)” value is reported as 0.

For the substance KWKKPLLKKLLKKL [satpdb12744], the Activity in the data set with cancer cell lines (setting [1]) is 0; in the data set with cancer cell lines (setting [2]), 0; in the data set with cancer cell lines (setting [3]), 0; in the data set with erythrocytes, 1.

ILPLKLPLLPWRR [satpdb11013]: the Activity with cancer cell lines (setting [6]), in the data set on cancer cell lines (setting [2]), in the data set on cancer cell lines (setting [3]), in the data set with erythrocytes (setting [4]) and in the data set with erythrocytes (setting [5]) was 0 each time.

As to FPFSLIPHAIGGLISAIK [satpdb11349], the Activity is recorded as 0 in the data set on cancer cell lines (setting [10]), 0 in the data set with cancer cell lines (setting [8]) and 1 in the data set on erythrocytes (setting [5]). In addition, the “Activity (dataset HD1, hemolytic 1 / non-hemolytic 0)” value in the data set on erythrocytes (setting [9]) is on record as 1.

In the case of VKLkVyPLKVKLyP [satpdb13685], the Activity with cancer cell lines (setting [1]) is reported as 0; in the data set on cancer cell lines (setting [2]), 0; in the data set on cancer cell lines (setting [3]), 0; in the data set with erythrocytes, 1.

Consider VNSKKISPKSIKVSK [satpdb10612], for which the Activity is 0 in the data set with cancer cell lines (setting [6]); 0 in the data set with cancer cell lines (setting [2]); 0 with cancer cell lines (setting [3]); 1 with erythrocytes (setting [4]); 1 in the data set with erythrocytes (setting [5]).

Take GFMKYIKPLIPHAVKAIKKLI [satpdb12244]: the Activity in the data set with cancer cell lines (setting [1]) was 0; in the data set on cancer cell lines (setting [2]), 0; in the data set on cancer cell lines (setting [3]), 0; with erythrocytes, 1.

Regarding MQFITDLIKKAVDFFKGLFGNK [satpdb11952], the Activity with cancer cell lines (setting [7]) was 0; with cancer cell lines (setting [8]), 0; in the data set with erythrocytes (setting [5]), 1. Moreover, the “Activity (dataset HD1, hemolytic 1 / non-hemolytic 0)” value in the data set with erythrocytes (setting [9]) is reported as 1.

Take GIGKFLHTLKTFGKKWVGEIMNS [satpdb13533]: the Activity with cancer cell lines (setting [1]) was 0; with cancer cell lines (setting [2]), 0; in the data set with cancer cell lines (setting [3]), 0; in the data set on erythrocytes, 1.

Turning to KfKLKQ [satpdb10387], the Activity in the data set with cancer cell lines (setting [6]), in the data set with cancer cell lines (setting [2]), in the data set on cancer cell lines (setting [3]), in the data set on erythrocytes (setting [4]) and with erythrocytes (setting [5]) was 0 each time.

For VKLyPVKLyP [satpdb11941], the Activity in the data set with cancer cell lines (setting [6]) is reported as 0; in the data set with cancer cell lines (setting [2]), 0; in the data set on cancer cell lines (setting [3]) it was 0; in the data set on erythrocytes (setting [4]), 1; in the data set with erythrocytes (setting [5]) it was 1.

In the case of ILPKKKPWWPWRR [satpdb13640], the Activity with cancer cell lines (setting [1]) was 0; in the data set on cancer cell lines (setting [2]) it was 0; with cancer cell lines (setting [3]), 0; in the data set on erythrocytes, 1.

As to LKKLLKWLKKL [satpdb13099], the Activity is given as 0 in the data set on cancer cell lines (setting [1]), 0 in the data set with cancer cell lines (setting [2]), 0 in the data set with cancer cell lines (setting [3]) and 1 with erythrocytes.

As to KWFRVYRGIYRRR [satpdb13764], the Activity in the data set on cancer cell lines (setting [1]), with cancer cell lines (setting [2]), in the data set on cancer cell lines (setting [3]) and with erythrocytes was 0 in each case.

Regarding “GIGAvLKvLTTGLPALiSWIkRKRQQ [satpdb13084]”, the Activity in the data set on cancer cell lines (setting [1]), with cancer cell lines (setting [2]), with cancer cell lines (setting [3]), in the data set with erythrocytes (setting [4]) and with erythrocytes (setting [5]) was 0 each time.

Consider LKWLLKWLL [satpdb12315], for which the Activity was 0 with cancer cell lines (setting [1]); 0 in the data set on cancer cell lines (setting [2]); 0 in the data set with cancer cell lines (setting [3]); 1 in the data set on erythrocytes (setting [4]); 1 in the data set with erythrocytes (setting [5]).

Consider “CIAKGNGCQPSGVQGNCCSGHCHKEPGWVAGYCK [satpdb13088]”, for which the Activity in the data set with cancer cell lines (setting [1]), in the data set with cancer cell lines (setting [2]), with cancer cell lines (setting [3]), in the data set with erythrocytes (setting [4]) and in the data set with erythrocytes (setting [5]) was 0 each time.

Regarding FLSLALAALPKLFCLIFKKC [satpdb10291], the values for the Activity with cancer cell lines (setting [10]), in the data set with cancer cell lines (setting [8]) and in the data set with erythrocytes (setting [5]) were 0, 0 and 1, respectively. For the same substance, the “Activity (dataset HD1, hemolytic 1 / non-hemolytic 0)” value in the data set on erythrocytes (setting [9]) is 1.

Consider KWAKKWKWFAKAAWKWYKK [satpdb12565], for which the Activity with cancer cell lines (setting [1]) was 0; in the data set with cancer cell lines (setting [2]), 0; in the data set on cancer cell lines (setting [3]), 0; in the data set on erythrocytes (setting [4]), 1; in the data set on erythrocytes (setting [5]), 1.

As to kklfkkILKYL [satpdb10342], the Activity with cancer cell lines (setting [6]), with cancer cell lines (setting [2]), in the data set on cancer cell lines (setting [3]), in the data set with erythrocytes (setting [4]) and in the data set with erythrocytes (setting [5]) was 0 each time.

In the case of DAACAAKCLWR [satpdb10773], the Activity with cancer cell lines (setting [6]), in the data set with cancer cell lines (setting [2]), with cancer cell lines (setting [3]), in the data set on erythrocytes (setting [4]) and in the data set with erythrocytes (setting [5]) was 0 in each case.

As for KKLFKKiLKYL [satpdb14620], the Activity with cancer cell lines (setting [1]), in the data set on cancer cell lines (setting [2]), with cancer cell lines (setting [3]) and in the data set on erythrocytes was 0 throughout.

As to ILAWKWAWWAWRR [satpdb11388], the Activity in the data set on cancer cell lines (setting [6]) was 0; in the data set on cancer cell lines (setting [2]), 0; in the data set with cancer cell lines (setting [3]), 0; with erythrocytes it was 1.

As to VSWKKSLGKIIKVVK [satpdb13183], the Activity with cancer cell lines (setting [1]) is 0; in the data set with cancer cell lines (setting [2]) it was 0; in the data set with cancer cell lines (setting [3]), 0; in the data set on erythrocytes (setting [4]), 1; in the data set on erythrocytes (setting [5]), 1.

On to “RFGRFLRKIRRFRPKVTITIQGSARFG [satpdb11815]”, for which the Activity is 0 in the data set on cancer cell lines (setting [7]), 0 with cancer cell lines (setting [8]) and 1 in the data set on erythrocytes. Further, the “Activity (dataset HD1, hemolytic 1 / non-hemolytic 0)” value with erythrocytes is listed as 1.
